# Results: patent publication US12139492B2 (Endotarget Inc., priority 2021, dated 2024)
# Where two headings read alike, the source gives them in different places.
# Key:
# Mino cells = test: Antiproliferative effect, MTS cell viability assay, Mino cells; type: cell-based; settings: Homo sapiens, Mino mantle cell lymphoma cells, read-out: IC50 (anti-proliferation) Mino cells
# Outline: (§1)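 Readout was MTS-derived formazan absorbance (490 nm) reflecting metabolically active cells. Treatment lasted 72 h over a 0–10 μM range (0.001, 0.01, 0.1, 1, 10 μM) in JeKo-1 and Mino B-cell malignancy cells.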
# JeKo-1 cells = test: Antiproliferative effect, MTS cell viability assay, JeKo-1 cells; type: cell-based; settings: Homo sapiens; JeKo-1 mantle cell lymphoma cells; read-out: IC50 (anti-proliferation) JeKO-1 cells
# Outline: as §1
# BTK = BTK (Homo sapiens, UniProt Q06187); test: Degradation of BTK protein in Namalwa cells (Western blot; DC50, Dmax); settings: for DC50: cell line not given
# Sequence of BTK (Q06187 whole entry): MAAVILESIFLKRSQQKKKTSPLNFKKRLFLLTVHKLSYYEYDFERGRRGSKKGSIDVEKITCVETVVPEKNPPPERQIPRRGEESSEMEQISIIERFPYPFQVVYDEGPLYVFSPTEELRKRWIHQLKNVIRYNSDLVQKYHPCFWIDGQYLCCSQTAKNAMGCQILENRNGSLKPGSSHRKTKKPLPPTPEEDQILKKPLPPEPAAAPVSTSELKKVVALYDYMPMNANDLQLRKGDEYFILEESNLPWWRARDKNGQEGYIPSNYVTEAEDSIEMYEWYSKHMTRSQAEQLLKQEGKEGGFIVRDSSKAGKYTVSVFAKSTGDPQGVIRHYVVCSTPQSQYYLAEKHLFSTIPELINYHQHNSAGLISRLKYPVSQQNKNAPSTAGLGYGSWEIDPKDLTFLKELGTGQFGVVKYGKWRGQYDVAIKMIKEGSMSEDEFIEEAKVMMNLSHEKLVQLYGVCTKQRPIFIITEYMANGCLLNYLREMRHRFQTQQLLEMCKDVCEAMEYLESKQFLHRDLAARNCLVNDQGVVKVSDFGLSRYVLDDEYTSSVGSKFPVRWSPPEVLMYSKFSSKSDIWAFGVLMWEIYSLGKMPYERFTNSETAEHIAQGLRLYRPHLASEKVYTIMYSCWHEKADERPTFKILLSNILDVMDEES
# [1] = read-out: DC50 (BTK degradation), concentration giving 50% reduction of BTK expression level
# [2] = read-out: Dmax (BTK degradation)
SMILES,IC50 (Mino cells; MINO) [nM],IC50 (JeKo-1 cells) [nM],Dmax (BTK) [%],DC50 (BTK; BTK degradation) [nM],IC50 (Mino cells) [nM],DC50 (BTK; [1]) [nM],Dmax (BTK; [2]) [%]
"NC(=O)c1c(-c2ccc(Oc3ccccc3)cc2)nn2c1NCC[C@H]2C1CCN(C2CCN(C(=O)N3CCC(N4CCN(c5ccc6c(c5)C(=O)N(C5CCC(=O)NC5=O)C6=O)CC4)CC3)CC2)CC1 (stereo partly drawn) [Compound 381, (7S)-7-(1′-(4-(4-(2-(2,6-dioxopiperidin-3-yl)-1,3-dioxoisoindolin-5-yl)piperazin-1-yl)piperidine-1-carbonyl)-[1,4′-bipiperidin]-4-yl)-2-(4-phenoxyphenyl)-4,5,6,7-tetrahydropyrazolo[1,5-a]pyrimidine-3-carboxamide]",< 1000,< 1000,> 90,< 10,,,
"Nc1ncnc2c1c(-c1ccc(Oc3ccccc3)cc1)nn2C1CCN(C2CCN(CC3CCN(c4ccc5c(c4)C(=O)N([C@@H]4CCC(=O)NC4=O)C5=O)CC3)CC2)CC1 [Compound 213a, (R)-5-(4-((4-(4-amino-3-(4-phenoxyphenyl)-1H-pyrazolo[3,4-d]pyrimidin-1-yl)[1,4′-bipiperidin]-1′-yl)methyl)piperidin-1-yl)-2-(2,6-dioxopiperidin-3-yl)isoindoline-1,3-dione]",< 1000,< 1000,> 90,< 10,,,
"NC(=O)c1c(-c2ccc(Oc3ccccc3)cc2)nn2c1NCC[C@H]2C1CCN(CCOCCOCCN2CCN(c3ccc4c(c3)CN(C3CCC(=O)NC3=O)C4=O)CC2)CC1 (stereo partly drawn) [Compound 272, (7S)-7-(1-(2-(2-(2-(4-(2-(2,6-dioxopiperidin-3-yl)-1-oxoisoindolin-5-yl)piperazin-1-yl)ethoxy)ethoxy)ethyl)piperidin-4-yl)-2-(4-phenoxyphenyl)-4,5,6,7-tetrahydropyrazolo[1,5-a]pyrimidine-3-carboxamide]",1000 to 10000,> 10000,> 90,10 to 50,,,
"NC(=O)c1c(-c2ccc(Oc3ccccc3)cc2)nn2c1NCCC2C1CCN(CC2CCN(C(=O)N3CCC(C4CCN(c5ccc6c(c5)CN(C5CCC(=O)NC5=O)C6=O)CC4)CC3)CC2)CC1 (stereo not shown) [Compound 366, 7-(1-((1-(1′-(2-(2,6-dioxopiperidin-3-yl)-1-oxoisoindolin-5-yl)-[4,4′-bipiperidine]-1-carbonyl)piperidin-4-yl)methyl)piperidin-4-yl)-2-(4-phenoxyphenyl)-4,5,6,7-tetrahydropyrazolo[1,5-a]pyrimidine-3-carboxamide]",< 1000,< 1000,> 90,< 10,,,
"Nc1ncnc2c1c(-c1ccc(Oc3ccccc3)cc1)nn2C1CCN(CCN2CCC(CN3CCN(c4ccc5c(c4)C(=O)N(C4CCC(=O)NC4=O)C5=O)CC3)CC2)CC1 (stereo not shown) [Compound 453, 5-(4-((1-(2-(4-(4-amino-3-(4-phenoxyphenyl)-1H-pyrazolo(3,4-d)pyrimidin-1-yl)piperidin-1-yl)ethyl)piperidin-4-yl)methyl)piperazin-1-yl)-2-(2,6-dioxopiperidin-3-yl)isoindoline-1,3-dione]",,1000 to 10000,,,1000 to 10000,10 to 50,> 90
"Nc1ncnc2c1c(-c1ccc(Oc3ccccc3)cc1)nn2C1CCN(CC2CCN(CCN3CCN(c4ccc5c(c4)C(=O)N(C4CCC(=O)NC4=O)C5=O)CC3)CC2)CC1 (stereo not shown) [Compound 203, 5-(4-(2-(4-((4-(4-amino-3-(4-phenoxyphenyl)-1H-pyrazolo[3,4-d]pyrimidin-1-yl)piperidin-1-yl)methyl)piperidin-1-yl)ethyl)piperazin-1-yl)-2-(2,6-dioxopiperidin-3-yl)isoindoline-1,3-dione]",1000 to 10000,1000 to 10000,> 90,10 to 50,,,
"NC(=O)c1c(-c2ccc(Oc3ccccc3)cc2)nn2c1NCC[C@H]2C1CCN(CC2CCN(C(=O)N3CCN(Cc4ccc5c(c4)C(=O)N(C4CCC(=O)NC4=O)C5=O)CC3)CC2)CC1 (stereo partly drawn) [Compound 399, (7S)-7-(1-((1-(4-((2-(2,6-dioxopiperidin-3-yl)-1,3-dioxoisoindolin-5-yl)methyl)piperazine-1-carbonyl)piperidin-4-yl)methyl)piperidin-4-yl)-2-(4-phenoxyphenyl)-4,5,6,7-tetrahydropyrazolo[1,5-a]pyrimidine-3-carboxamide]",1000 to 10000,> 10000,,,,> 50,> 50
"Nc1ncnc2c1c(-c1ccc(Oc3ccccc3)cc1)nn2C1CCN(C[C@@H]2CCN(CC3CCN(c4ccc5c(c4)CN(C4CCC(=O)NC4=O)C5=O)CC3)C2)CC1 (stereo partly drawn) [Compound 446b, 3-(5-(4-(((S)-3-((4-(4-amino-3-(4-phenoxyphenyl)-1H-pyrazolo[3,4-d]pyrimidin-1-yl)piperidin-1-yl)methyl)pyrrolidin-1-yl)methyl)piperidin-1-yl)-1-oxoisoindolin-2-yl)piperidine-2,6-dione]",< 1000,1000 to 10000,,,,10 to 50,> 90
"Nc1ncnc2c1c(-c1ccc(Oc3ccccc3)cc1)nn2C1CCN(CCCN2CCC(CN3CCN(c4ccc(NC5CCC(=O)NC5=O)cc4)CC3)C2)CC1 (stereo not shown) [Compound 565, 3-((4-(4-((1-(3-(4-(4-amino-3-(4-phenoxyphenyl)-1H-pyrazolo[3,4-d]pyrimidin-1-yl)piperidin-1-yl)propyl)pyrrolidin-3-yl)methyl)piperazin-1-yl)phenyl)amino)piperidine-2,6-dione]",< 1000,< 1000,,,,10 to 50,> 75
"NC(=O)c1c(-c2ccc(Oc3ccccc3)cc2)nn2c1NCCC2C1CCN(C(=O)N2CCC(CCN3CCC(c4ccc5c(c4)CN(C4CCC(=O)NC4=O)C5=O)CC3)CC2)CC1 (stereo not shown) [Compound 286, 7-(1-(4-(2-(4-(2-(2,6-dioxopiperidin-3-yl)-1-oxoisoindolin-5-yl)piperidin-1-yl)ethyl)piperidine-1-carbonyl)piperidin-4-yl)-2-(4-phenoxyphenyl)-4,5,6,7-tetrahydropyrazolo[1,5-a]pyrimidine-3-carboxamide]",1000 to 10000,1000 to 10000,> 75,> 50,,,
"Nc1ncnc2c1c(-c1ccc(Oc3ccccc3)cc1)nn2C1CCN(CCN2CCC(CSc3ccc4c(c3)C(=O)N(C3CCC(=O)NC3=O)C4=O)C2)CC1 (stereo not shown) [Compound 473, 5-(((1-(2-(4-(4-amino-3-(4-phenoxyphenyl)-1H-pyrazolo[3,4-d]pyrimidin-1-yl)piperidin-1-yl)ethyl)pyrrolidin-3-yl)methyl)thio)-2-(2,6-dioxopiperidin-3-yl)isoindoline-1,3-dione]",1000 to 10000,1000 to 10000,,,,10 to 50,> 90
"NC(=O)c1c(-c2ccc(Oc3ccccc3)cc2)nn2c1NCC[C@H]2C1CCN(CC2CCN(C(=O)N3CCC(C4CCN(c5ccc6c(c5)CN(C5CCC(=O)NC5=O)C6=O)CC4)CC3)CC2)CC1 (stereo partly drawn) [Compound 406, (7S)-7-(1-((1-(1′-(2-(2,6-dioxopiperidin-3-yl)-1-oxoisoindolin-5-yl)-[4,4′-bipiperidine]-1-carbonyl)piperidin-4-yl)methyl)piperidin-4-yl)-2-(4-phenoxyphenyl)-4,5,6,7-tetrahydropyrazolo[1,5-a]pyrimidine-3-carboxamide]",< 1000,1000 to 10000,,,,< 10,> 90
"Nc1ncnc2c1c(-c1ccc(Oc3ccccc3)cc1)nn2C1CCN(CC2CC(N3CCN(c4ccc5c(c4)C(=O)N(C4CCC(=O)NC4=O)C5=O)CC3)C2)CC1 (stereo not shown) [Compound 530, 5-(4-(3-((4-(4-amino-3-(4-phenoxyphenyl)-1H-pyrazolo[3,4-d]pyrimidin-1-yl)piperidin-1-yl)methyl)cyclobutyl)piperazin-1-yl)-2-(2,6-dioxopiperidin-3-yl)isoindoline-1,3-dione]",< 1000,< 1000,,,,< 10,> 90
"Nc1ncnc2c1c(-c1ccc(Oc3ccccc3)cc1)nn2C1CCN(C2CCN(C(=O)N3CCC(CCC4CCN(c5ccc6c(c5)C(=O)N(C5CCC(=O)NC5=O)C6=O)CC4)CC3)CC2)CC1 (stereo not shown) [Compound 255, 5-(4-(2-(1-(4-(4-amino-3-(4-phenoxyphenyl)-1H-pyrazolo[3,4-d]pyrimidin-1-yl)-[1,4′-bipiperidine]-1′-carbonyl)piperidin-4-yl)ethyl)piperidin-1-yl)-2-(2,6-dioxopiperidin-3-yl)isoindoline-1,3-dione]",< 1000,1000 to 10000,> 90,10 to 50,,,
"NC(=O)c1c(-c2ccc(Oc3ccccc3)cc2)nn2c1NCCC2C1CCN(CC2CCN(C(=O)N3CCC(CN4CCC(c5ccc6c(c5)CN(C5CCC(=O)NC5=O)C6=O)CC4)CC3)CC2)CC1 (stereo not shown) [Compound 376, 7-(1-((1-(4-((4-(2-(2,6-dioxopiperidin-3-yl)-1-oxoisoindolin-5-yl)piperidin-1-yl)methyl)piperidine-1-carbonyl)piperidin-4-yl)methyl)piperidin-4-yl)-2-(4-phenoxyphenyl)-4,5,6,7-tetrahydropyrazolo[1,5-a]pyrimidine-3-carboxamide]",1000 to 10000,1000 to 10000,> 75,10 to 50,,,
"Nc1ncnc2c1c(-c1ccc(Oc3ccccc3)cc1)nn2C1CCN(C2CCN(C(=O)N3CCC(CCCN4CCC(c5ccc6c(c5)CN(C5CCC(=O)NC5=O)C6=O)CC4)CC3)CC2)CC1 (stereo not shown) [Compound 268, 3-(5-(1-(3-(1-(4-(4-amino-3-(4-phenoxyphenyl)-1H-pyrazolo[3,4-d]pyrimidin-1-yl)-[1,4′-bipiperidine]-1′-carbonyl)piperidin-4-yl)propyl)piperidin-4-yl)-1-oxoisoindolin-2-yl)piperidine-2,6-dione]",< 1000,1000 to 10000,> 90,10 to 50,,,
